In assay [1] the target is T1, wild type LRRK2 overexpressed in recombinant HEK-293T cells (Homo sapiens, UniProt Q5S007).
T1 construct: host or cells: HEK293T (transient transfection with pCMV-LRRK2 WT plasmid)
Nature of the assay: pS935 LRRK2 Cell Assay (HTRF, phospho-LRRK2 Ser935). The format is cell-based. To be noted: LRRK2 Inhibition, Table 8, 2 hours compound incubation. The procedure, abridged: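 Phospho-Ser935 LRRK2 measured by two-antibody HTRF (Eu-cryptate donor, d2 acceptor; 665/615 nm ratio) after overnight detection at 23° C. Before lysis, transiently LRRK2-transfected HEK-293T cells were exposed 2 h at 37° C to a 9-point, 3-fold series from 10 μM, with DMSO at 0.2%.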

A further assay addresses LRRK2 wild type enzyme (Homo sapiens, UniProt Q5S007). Description: Biochemical Assay: LRRK2 TR-FRET (LanthaScreen) kinase assay with LRRKtide substrate. As to conditions: LRRK2 Inhibition, Table 8. The procedure, abridged:
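TR-FRET detection (Tb-labelled phospho-LRRKtide antibody, EDTA stop, 30 min) followed a 120 min, 23 °C reaction of 3 nM wild-type human LRRK2 with LRRKtide (400 nM) and ATP (25 μM) in Tris pH 8.0. Compounds: 11-point 3-fold series from 10 μM, 15 min enzyme preincubation.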
A general note: Time-resolved FRET reads energy transfer from a long-lived donor to a nearby acceptor.

T1 sequence (Q5S007 whole entry): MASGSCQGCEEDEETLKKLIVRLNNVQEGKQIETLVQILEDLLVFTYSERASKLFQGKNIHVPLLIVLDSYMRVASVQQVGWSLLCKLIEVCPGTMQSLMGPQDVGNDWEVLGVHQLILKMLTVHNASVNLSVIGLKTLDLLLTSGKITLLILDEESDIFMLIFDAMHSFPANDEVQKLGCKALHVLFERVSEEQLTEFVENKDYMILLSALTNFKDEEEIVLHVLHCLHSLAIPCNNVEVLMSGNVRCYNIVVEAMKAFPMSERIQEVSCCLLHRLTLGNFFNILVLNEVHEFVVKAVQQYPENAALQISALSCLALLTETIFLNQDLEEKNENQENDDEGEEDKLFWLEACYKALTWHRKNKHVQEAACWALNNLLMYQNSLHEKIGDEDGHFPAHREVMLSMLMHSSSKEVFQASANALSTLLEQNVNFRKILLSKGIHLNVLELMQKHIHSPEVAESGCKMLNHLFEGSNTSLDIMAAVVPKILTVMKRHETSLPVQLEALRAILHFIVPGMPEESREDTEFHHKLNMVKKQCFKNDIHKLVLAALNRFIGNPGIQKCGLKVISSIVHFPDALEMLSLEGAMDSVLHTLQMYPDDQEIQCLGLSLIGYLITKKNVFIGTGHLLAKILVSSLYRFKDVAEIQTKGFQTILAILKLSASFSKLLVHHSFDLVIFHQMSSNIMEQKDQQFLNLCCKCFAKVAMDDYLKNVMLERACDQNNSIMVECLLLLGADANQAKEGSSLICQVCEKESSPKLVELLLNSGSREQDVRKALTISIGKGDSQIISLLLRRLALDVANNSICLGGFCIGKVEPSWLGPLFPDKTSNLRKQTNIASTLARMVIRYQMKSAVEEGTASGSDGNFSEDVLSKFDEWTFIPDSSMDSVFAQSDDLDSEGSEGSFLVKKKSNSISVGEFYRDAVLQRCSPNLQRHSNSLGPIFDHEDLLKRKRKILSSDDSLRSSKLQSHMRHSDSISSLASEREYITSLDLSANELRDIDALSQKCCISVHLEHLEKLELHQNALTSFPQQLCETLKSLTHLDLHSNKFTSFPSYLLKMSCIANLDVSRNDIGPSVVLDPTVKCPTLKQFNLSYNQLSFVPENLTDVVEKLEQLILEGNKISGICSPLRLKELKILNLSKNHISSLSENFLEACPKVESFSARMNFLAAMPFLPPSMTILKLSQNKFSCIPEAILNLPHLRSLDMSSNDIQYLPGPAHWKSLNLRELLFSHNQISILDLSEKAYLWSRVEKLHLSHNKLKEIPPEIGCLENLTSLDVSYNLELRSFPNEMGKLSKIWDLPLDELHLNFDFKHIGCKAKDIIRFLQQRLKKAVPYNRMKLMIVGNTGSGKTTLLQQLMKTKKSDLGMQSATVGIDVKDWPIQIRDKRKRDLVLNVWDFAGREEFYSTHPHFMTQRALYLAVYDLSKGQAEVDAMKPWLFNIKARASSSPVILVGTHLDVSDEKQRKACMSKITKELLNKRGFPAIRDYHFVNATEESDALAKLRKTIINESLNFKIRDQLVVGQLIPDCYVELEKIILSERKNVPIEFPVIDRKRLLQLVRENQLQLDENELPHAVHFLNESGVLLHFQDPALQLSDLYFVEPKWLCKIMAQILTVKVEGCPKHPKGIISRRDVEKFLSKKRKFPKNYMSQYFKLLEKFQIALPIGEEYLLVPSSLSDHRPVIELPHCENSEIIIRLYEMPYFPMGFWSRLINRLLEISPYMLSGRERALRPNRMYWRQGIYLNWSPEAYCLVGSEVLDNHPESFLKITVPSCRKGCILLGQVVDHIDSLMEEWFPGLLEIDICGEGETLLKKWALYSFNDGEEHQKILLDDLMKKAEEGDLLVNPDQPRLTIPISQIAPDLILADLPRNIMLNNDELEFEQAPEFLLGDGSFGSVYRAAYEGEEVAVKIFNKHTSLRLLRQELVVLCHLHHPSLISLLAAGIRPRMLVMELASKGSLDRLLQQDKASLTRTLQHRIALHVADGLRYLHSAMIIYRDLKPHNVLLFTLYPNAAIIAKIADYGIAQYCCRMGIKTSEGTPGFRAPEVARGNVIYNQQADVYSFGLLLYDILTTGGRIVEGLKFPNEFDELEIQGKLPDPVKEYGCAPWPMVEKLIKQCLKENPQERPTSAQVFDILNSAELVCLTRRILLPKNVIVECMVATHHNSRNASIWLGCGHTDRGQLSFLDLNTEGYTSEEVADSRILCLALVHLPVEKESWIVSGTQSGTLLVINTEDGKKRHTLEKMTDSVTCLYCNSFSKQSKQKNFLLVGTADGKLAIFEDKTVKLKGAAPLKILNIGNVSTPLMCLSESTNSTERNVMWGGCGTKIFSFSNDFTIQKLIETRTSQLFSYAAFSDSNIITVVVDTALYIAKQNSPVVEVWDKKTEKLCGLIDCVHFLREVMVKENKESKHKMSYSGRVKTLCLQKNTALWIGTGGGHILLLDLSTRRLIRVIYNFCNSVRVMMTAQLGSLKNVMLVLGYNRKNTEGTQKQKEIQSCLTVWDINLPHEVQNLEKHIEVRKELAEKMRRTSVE
Chain of LRRK2 wild type enzyme (Q5S007 whole entry): as above

On to `C[C@@H]1C[C@H](n2c([C@@H]3CCN(C(=O)C4CC4)C3)nc3cnc4ccc(C#N)cc4c32)CCO1` [Compound 40, 2-[(3R)-1-cyclopropanecarbonylpyrrolidin-3-yl]-1-[(2R,4R)-2-methyloxan-4-yl]-1H-imidazo[4,5-c]quinoline-8-carbonitrile], for which the values for the IC50 (in assay [1]; at LRRK2 wild type enzyme) were 685 nM and 9.19 nM, respectively.
The like results for `Cc1ccnc(C)c1NC(=O)Cc1nc2cnc3ccc(Cl)cc3c2n1[C@@H]1CCO[C@H](C)C1` [Compound 210, N-(2,4-dimethyl-3-pyridyl){3-[(2R,4R)-2-methyltetrahydro-2H-pyran-4-yl]-12-chloro-3,5,8-triazatricyclo[7.4.0.0^2,6]trideca-1,4,6,8,10,12-hexaen-4-yl}acetamide] were, in that order, 7.83 nM and 0.377 nM.
The like results for `C[C@@H]1C[C@H](n2c(CC(=O)NC3CC=CC3)nc3cnc4ccc(C#N)cc4c32)CCO1` [Compound 302, N-(3-cyclopenten-1-yl){3-[(2R,4R)-2-methyltetrahydro-2H-pyran-4-yl]-12-cyano-3,5,8-triazatricyclo[7.4.0.0^2,6]trideca-1,4,6,8,10,12-hexaen-4-yl}acetamide] were, in that order, 10 nM and 0.483 nM.
For `C[C@@H]1C[C@H](n2c(CNS(C)(=O)=O)nc3cnc4ccc(C#N)cc4c32)CCO1` [Compound 21, N-({8-cyano-1-[(2R,4R)-2-methyloxan-4-yl]-1H-imidazo[4,5-c]quinolin-2-yl}methyl)methanesulfonamide] the same measures were 641 nM and 5.18 nM.
Turning to `CN1CC(n2c(CC(=O)NCC3CC3)nc3cnc4ccc(C#N)cc4c32)CCC1=O` (single isomer, unassigned) [Compound 91], the IC50 – broadly, the concentration needed to halve the response being measured – turned out to be 6910 nM in assay [1] and 40.4 nM against LRRK2 wild type enzyme.
The like results for `C[C@@H]1C[C@H](n2c(CC(=O)Nc3cnn(C4COC4)c3)nc3cnc4ccc(C#N)cc4c32)CCO1` [Compound 304, N-[1-(3-oxetanyl)-4-pyrazolyl]{3-[(2R,4R)-2-methyltetrahydro-2H-pyran-4-yl]-12-cyano-3,5,8-triazatricyclo[7.4.0.0^2,6]trideca-1(13),2(6),4,7,9,11-hexaen-4-yl}acetamide] were, in that order, 107 nM and 0.733 nM.
The like results for `C[C@@H]1C[C@H](n2c(CC(=O)Nc3cccnc3O)nc3cnc4ccc(C#N)cc4c32)CCO1` [Compound 218, N-(2-hydroxy-3-pyridyl){3-[(2R,4R)-2-methyltetrahydro-2H-pyran-4-yl]-12-cyano-3,5,8-triazatricyclo[7.4.0.0^2,6]trideca-1,4,6,8,10,12-hexaen-4-yl}acetamide] were, in that order, 83.5 nM and 0.45 nM.
The like results for `Cc1nccnc1NC(=O)Cc1nc2cnc3ccc(C#N)cc3c2n1[C@@H]1CCO[C@H](C)C1` [Compound 311, N-(3-methyl-2-pyrazinyl){3-[(2R,4R)-2-methyltetrahydro-2H-pyran-4-yl]-12-cyano-3,5,8-triazatricyclo[7.4.0.0^2,6]trideca-1(9),2(6),4,7,10,12-hexaen-4-yl}acetamide] were, in that order, 10 nM and 0.583 nM.
In the case of `CCc1ncc(NC(=O)Cc2nc3cnc4ccc(C#N)cc4c3n2[C@@H]2CCO[C@H](C)C2)cn1` [Compound 262, N-(2-ethyl-5-pyrimidinyl){3-[(2R,4R)-2-methyltetrahydro-2H-pyran-4-yl]-12-cyano-3,5,8-triazatricyclo[7.4.0.0^2,6]trideca-1,4,6,8,10,12-hexaen-4-yl}acetamide], the IC50 came to 18.2 nM in assay [1] and 0.467 nM against LRRK2 wild type enzyme.
`C[C@@H]1C[C@H](n2c(CC(=O)Nc3cncnc3O)nc3cnc4ccc(C#N)cc4c32)CCO1` [Compound 211, N-(4-hydroxy-5-pyrimidinyl){3-[(2R,4R)-2-methyltetrahydro-2H-pyran-4-yl]-12-cyano-3,5,8-triazatricyclo[7.4.0.0^2,6]trideca-1,4,6,8,10,12-hexaen-4-yl}acetamide]: the IC50 in assay [1] is 1690 nM; on LRRK2 wild type enzyme it was 0.484 nM.
The like results for `C[C@@H]1C[C@H](n2c(CC(=O)NC[C@@H]3CCCO3)nc3cnc4ccc(C#N)cc4c32)CCO1` [Compound 154, 2-{8-cyano-1-[(2R,4R)-2-methyloxan-4-yl]-1H-imidazo[4,5-c]quinolin-2-yl}-N-{[(2S)-oxolan-2-yl]methyl}acetamide] were, in that order, 39.2 nM and 0.674 nM.
For `C[C@@H]1C[C@H](n2c(C3CN(C(=O)C4CC4)C3)nc3cnc4ccc(C#N)cc4c32)CCO1` [Compound 68, 2-(1-cyclopropanecarbonylazetidin-3-yl)-1-[(2R,4R)-2-methyloxan-4-yl]-1H-imidazo[4,5-c]quinoline-8-carbonitrile] the same measures were 1140 nM and 7.43 nM.
The like results for `C[C@@H]1C[C@H](n2c(CC(=O)NC3CCCCC3)nc3cnc4ccc(C#N)cc4c32)CCO1` [Compound 309, N-cyclohexyl{3-[(2R,4R)-2-methyltetrahydro-2H-pyran-4-yl]-12-cyano-3,5,8-triazatricyclo[7.4.0.0^2,6]trideca-1,4,6,8,10,12-hexaen-4-yl}acetamide] were, in that order, 14.4 nM and 0.635 nM.
Turning to `CN1CC(n2c(C3CC(=O)N(CC4CC4)C3)nc3cnc4ccc(C#N)cc4c32)CCC1=O` (single isomer, unassigned) [Compound 140], the IC50 in assay [1] was above 10000 nM; on LRRK2 wild type enzyme, 42.1 nM.
As to `C[C@@H]1C[C@H](n2c(CC(=O)NC3(c4ccccn4)CC3)nc3cnc4ccc(C#N)cc4c32)CCO1` [Compound 363, N-[1-(2-pyridyl)cyclopropyl]{3-[(2R,4R)-2-methyltetrahydro-2H-pyran-4-yl]-12-cyano-3,5,8-triazatricyclo[7.4.0.0^2,6]trideca-1,4,6,8,10,12-hexaen-4-yl}acetamide], the IC50 in assay [1] came out at 2.05 nM; at LRRK2 wild type enzyme it was 0.533 nM.
For `C[C@@H]1C[C@H](n2c([C@H]3CCN(C(=O)OC(C)(C)C)C3)nc3cnc4ccc(C#N)cc4c32)CCO1` [Compound 26, tert-butyl (3S)-3-{8-cyano-1-[(2R,4R)-2-methyloxan-4-yl]-1H-imidazo[4,5-c]quinolin-2-yl}pyrrolidine-1-carboxylate] the same measures were 452 nM and 5.26 nM.
The like results for `Cc1oncc1CNC(=O)Cc1nc2cnc3ccc(C#N)cc3c2n1[C@@H]1CCO[C@H](C)C1` [Compound 179, 2-(8-cyano-1-((2R,4R)-2-methyltetrahydro-2H-pyran-4-yl)-1H-imidazo[4,5-c]quinolin-2-yl)-N-((5-methylisoxazol-4-yl)methyl)acetamide] were, in that order, 17.1 nM and 0.337 nM.
For `C[C@@H]1C[C@H](n2c(CC(=O)NCc3cccc(F)n3)nc3cnc4ccc(C#N)cc4c32)CCO1` [Compound 146, 2-{8-cyano-1-[(2R,4R)-2-methyloxan-4-yl]-1H-imidazo[4,5-c]quinolin-2-yl}-N-[(6-fluoropyridin-2-yl)methyl]acetamide] the same measures were 4.79 nM and 0.313 nM.
On to `COc1nn(C)cc1NC(=O)Cc1nc2cnc3ccc(C#N)cc3c2n1[C@@H]1CCO[C@H](C)C1` [Compound 229, N-(3-methoxy-1-methyl-4-pyrazolyl){3-[(2R,4R)-2-methyltetrahydro-2H-pyran-4-yl]-12-cyano-3,5,8-triazatricyclo[7.4.0.0^2,6]trideca-1,4,6,8,10,12-hexaen-4-yl}acetamide], for which the IC50 stood at 6.62 nM in assay [1] and 0.316 nM on LRRK2 wild type enzyme.

These data come from US20250270209A1 (INTERLINE THERAPEUTICS, INC., priority 2022, published 2025).
